Data as given in patent publication US20080312435A1, “Imine Compound” (TAISHO PHARMACEUTICAL CO., LTD., priority 2004, published 2008).

Tests used:
human CB2 receptor = biological target: T1, human CB2 receptor (Homo sapiens, UniProt P34972); experiment: Human CB2 receptor binding inhibition test ([3H]CP-55,940, CHO membrane fractions); details: [3H]CP-55,940, membrane fractions of CHO cells stably expressing human CB2 receptor, 25° C., 2 hours; read-out: CB2 IC50 (Inhibition of binding to human CB2 receptor)
T1 construct: expressed in transfected cells
From the text: Human CB2 Receptor Binding Inhibition Test
First, cDNA sequence (Munro et al., Nature, 1993, 365, 61-65) encoding a human CB2 receptor was inserted in the forward direction in an animal-cell expression vector, pTARGET Vector (manufactured by Promega) at a region downstream of a CMV promoter. Host cells CHO-DHFR(−) were transfected with the obtained expression vector with the aid of Lipofectamine (manufactured by Invitrogen) to obtain cells capable of stably expressing the CB2 receptor.
After the filtrate was washed with an assay buffer containing 0.1% bovine serum albumin, the radioactivity on the glass filter was measured by a liquid scintillation counter. Nonspecific binding was measured in the presence of 2.0 μM CP-55,940 (manufactured by Tocris). 50% inhibitory concentration (IC50 value) of the test compound for the specific binding was obtained.

T1 sequence (P34972 whole entry): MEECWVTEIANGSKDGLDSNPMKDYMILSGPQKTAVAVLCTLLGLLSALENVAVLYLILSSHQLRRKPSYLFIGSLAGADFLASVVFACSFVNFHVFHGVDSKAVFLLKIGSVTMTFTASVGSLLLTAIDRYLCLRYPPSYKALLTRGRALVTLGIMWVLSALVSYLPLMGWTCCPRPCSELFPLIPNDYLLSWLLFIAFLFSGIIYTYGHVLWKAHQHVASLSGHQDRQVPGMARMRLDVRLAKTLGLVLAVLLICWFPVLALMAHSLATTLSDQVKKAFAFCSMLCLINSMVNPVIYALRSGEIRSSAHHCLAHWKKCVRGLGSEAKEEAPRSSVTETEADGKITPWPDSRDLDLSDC

Compound	IC50 (human CB2 receptor) [nM]	melting point [°C]
Cc1c(C(C)(C)C)s/c(=N\C(=O)C2C[C@H]2c2ccccc2)n1CC1CC1 (mixture of isomers) [compound 337]	2.8	110 to 112
Cc1s/c(=N\C(=O)CC(C)CC(C)(C)C)n(CC2CC2)c1C (racemic) [compound 99]	6.5	42 to 43
CCOCCn1c(C)c(C(C)(C)C)s/c1=N\C(=O)c1cccc(C(F)(F)F)c1 [Compound No. 352, 5-t-butyl-3-(2-ethoxyethyl)-4-methyl-2-(3-trifluoromethylbenzoyl)imino-2,3-dihydrothiazole]	2.3	91 to 92
O=C(/N=c1\ccccn1CC1CCC1)c1cccc(C(F)(F)F)c1F [compound 12]	13.3	93 to 94
Cc1ccn(CC2CC2)/c(=N/C(=O)c2cccc(C(F)(F)F)c2F)c1 [compound 23]	8.9	81 to 83
Cc1cc/c(=N\C(=O)c2cccc(C(F)(F)F)c2F)n(CC2CC2)c1 [compound 24]	7.5	118 to 120
Cc1ccc/c(=N\C(=O)c2cccc(C(F)(F)F)c2F)n1CC1CC1 [compound 25]	17.4	96 to 98
O=C(/N=c1\cc(C(F)(F)F)ccn1CC1CC1)c1cccc(C(F)(F)F)c1F [compound 29]	8.6	85 to 86
O=C(/N=c1\cc(Cl)ccn1CC1CC1)c1cccc(C(F)(F)F)c1F [compound 33]	8.2	91 to 93
O=C(/N=c1\ccc(Cl)cn1CC1CC1)c1cccc(C(F)(F)F)c1F [compound 34]	6.6	117 to 119
O=C(/N=c1\cccc(Cl)n1CC1CC1)c1cccc(C(F)(F)F)c1F [compound 35]	3.4	81 to 83
O=C(/N=c1\ccc(F)cn1CC1CC1)c1cccc(C(F)(F)F)c1F [compound 37]	11.3	89 to 91
Cc1c(Br)cc/c(=N\C(=O)c2cccc(C(F)(F)F)c2F)n1CC1CC1 [compound 41]	1.4	135 to 137
Cc1c/c(=N\C(=O)c2cccc(C(F)(F)F)c2F)n(CC2CC2)c(C)c1Br [compound 46]	1.2	121 to 122
CC(C)(C)c1c/c(=N\C(=O)c2cc(C(F)(F)F)ccc2F)n(CC2CC2)s1 [compound 58]	1.8	63 to 65
Cc1cs/c(=N\C(=O)c2cccc(C(F)(F)F)c2F)n1CC1CC1 [compound 63]	4.9	109 to 111
Cc1cn(CC2CC2)/c(=N/C(=O)c2cccc(C(F)(F)F)c2F)s1 [compound 67]	3	129 to 130
CCn1c(C)c(C)s/c1=N\C(=O)c1cccc(C(F)(F)F)c1F [compound 70]	14.9	198 to 200
CCc1ccccc1C(=O)/N=c1\sc(C)c(C)n1CC1CC1 [compound 71]	5.9	150 to 152
Cc1s/c(=N\C(=O)c2ccccc2C(F)(F)F)n(CC2CC2)c1C [compound 74]	4.6	125 to 127
Cc1s/c(=N\C(=O)c2ccccc2Br)n(CC2CC2)c1C [compound 76]	14.4	114 to 116

Compound	IC50 (human CB2 receptor) [nM]	melting point [°C]
Cc1s/c(=N\C(=O)c2cccc(Br)c2)n(CC2CC2)c1C [compound 77]	19.3	159 to 160
Cc1s/c(=N\C(=O)c2ccccc2I)n(CC2CC2)c1C [compound 78]	9.8	130 to 132
Cc1s/c(=N\C(=O)c2cccc(Cl)c2F)n(CC2CC2)c1C [compound 79]	8.4	109 to 111
Cc1s/c(=N\C(=O)c2cc(F)ccc2Cl)n(CC2CC2)c1C [compound 80]	17.9	139 to 140
Cc1s/c(=N\C(=O)c2cc(F)c(F)cc2Cl)n(CC2CC2)c1C [compound 85]	18.9	161 to 163
Cc1s/c(=N\C(=O)c2cc(F)c(Cl)cc2Cl)n(CC2CC2)c1C [compound 86]	6.5	59 to 60
COc1ccc(OC)c(C(=O)/N=c2\sc(C)c(C)n2CC2CC2)c1 [compound 88]	17.8	124 to 126
Cc1ccc(F)cc1C(=O)/N=c1\sc(C)c(C)n1CC1CC1 [compound 89]	9.8	82 to 84
Cc1cc(Cl)ccc1C(=O)/N=c1\sc(C)c(C)n1CC1CC1 [compound 90]	6.5	124 to 125
Cc1ccc(C(=O)/N=c2\sc(C)c(C)n2CC2CC2)c(Br)c1 [compound 91]	7.9	90 to 92
Cc1s/c(=N\C(=O)c2cc(C(F)(F)F)ccc2F)n(CC2CC2)c1C [compound 92]	3.9	122 to 123
Cc1s/c(=N\C(=O)c2cc(F)ccc2C(F)(F)F)n(CC2CC2)c1C [compound 93]	17.6	131 to 133
Cc1s/c(=N\C(=O)c2c(F)cccc2C(F)(F)F)n(CC2CC2)c1C [compound 94]	2.9	111 to 113
COc1ccc(F)cc1C(=O)/N=c1\sc(C)c(C)n1CC1CC1 [compound 96]	7.7	107 to 109
COc1ccc(Cl)cc1C(=O)/N=c1\sc(C)c(C)n1CC1CC1 [compound 97]	3.3	121 to 123
Cc1s/c(=N\C(=O)CC2CCCC2)n(CC2CC2)c1C [compound 100]	7	108 to 109
COCCCn1c(C)c(C)s/c1=N\C(=O)c1cccc(C(F)(F)F)c1F [compound 105]	1.7	104 to 106
CCc1s/c(=N\C(=O)c2cccc(C(F)(F)F)c2F)n(CC2CC2)c1C [compound 109]	1.3	164 to 166
Cc1c(C(C)C)s/c(=N\C(=O)c2cccc(C(F)(F)F)c2F)n1CC1CC1 [compound 113]	1.1	64 to 66
COCCn1c(C)c(C(C)C)s/c1=N\C(=O)c1cccc(C(F)(F)F)c1F [compound 114]	1.6	132 to 134
Cc1c(C(C)(C)C)s/c(=N\C(=O)c2ccccc2C(F)(F)F)n1C [compound 117]	5.6	74 to 76

Compound	IC50 (human CB2 receptor) [nM]	melting point [°C]
Cc1c(C(C)(C)C)s/c(=N\C(=O)c2ccccc2Cl)n1C [compound 119]	18.5	119 to 121
Cc1c(C(C)(C)C)s/c(=N\C(=O)c2ccccc2Br)n1C [compound 120]	7.4	182 to 184
Cc1c(C(C)(C)C)s/c(=N\C(=O)c2ccccc2I)n1C [compound 122]	8.9	83 to 85
Cc1c(C(C)(C)C)s/c(=N\C(=O)c2cccc(Cl)c2F)n1C [compound 129]	7.1	203 to 205
Cc1c(C(C)(C)C)s/c(=N\C(=O)c2cc(F)ccc2Cl)n1C [compound 130]	8.5	125 to 126
Cc1c(C(C)(C)C)s/c(=N\C(=O)c2cc(F)ccc2Br)n1C [compound 131]	5.6	161 to 162
Cc1c(C(C)(C)C)s/c(=N\C(=O)c2cc(Br)ccc2F)n1C [compound 132]	15.7	144 to 145
Cc1c(C(C)(C)C)s/c(=N\C(=O)c2cc(Cl)ccc2Cl)n1C [compound 133]	7.3	171 to 173
Cc1c(C(C)(C)C)s/c(=N\C(=O)c2c(F)ccc(F)c2F)n1C [compound 134]	6.8	143 to 145
Cc1c(C(C)(C)C)s/c(=N\C(=O)c2cc(F)c(F)cc2Cl)n1C [compound 135]	11.9	145 to 146
Cc1c(C(C)(C)C)s/c(=N\C(=O)c2cc(F)c(Cl)cc2Cl)n1C [compound 136]	11.6	205 to 207
Cc1ccc(F)cc1C(=O)/N=c1\sc(C(C)(C)C)c(C)n1C [compound 138]	12	145 to 146
Cc1c(Cl)cccc1C(=O)/N=c1\sc(C(C)(C)C)c(C)n1C [compound 139]	7.4	161 to 162
Cc1c(Br)cccc1C(=O)/N=c1\sc(C(C)(C)C)c(C)n1C [compound 140]	6.1	143 to 144
Cc1c(C(C)(C)C)s/c(=N\C(=O)c2cccc(C(F)(F)F)c2F)n1C [compound 141]	13.9	176 to 178
CCOCCn1/c(=N/C(=O)c2cccc(C(F)(F)F)c2F)cc(C(C)(C)C)n1C [compound 488]	4	–
CC(C)OCCn1/c(=N/C(=O)c2cccc(C(F)(F)F)c2F)cc(C(C)(C)C)n1C [compound 493]	1.9	–
CCn1c(C(C)(C)C)c/c(=N\C(=O)c2cccc(C(F)(F)F)c2F)n1CC1CC1 [compound 495]	6.3	–
CC(C)(C)c1nn(CC2CC2)/c(=N/C(=O)c2cccc(C(F)(F)F)c2F)s1 [compound 504]	15.4	–
CCOc1ccncc1C(=O)/N=c1\sc(C(C)(C)C)nn1CC1CC1 [compound 513]	16.9	–
